According to PubChem BioAssay (NCI):
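Cultured in 96-well plates, cells were exposed to test compound for 48 hours across five concentrations. TGI marks complete inhibition of growth.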

Tests used:
Test in all cases: NCI tumour cell line growth inhibition, 48 h
TK-10 renal = tested on: TK-10 renal
CAKI-1 renal = tested on: CAKI-1 renal
ACHN renal = tested on: ACHN renal
M14 melanoma = tested on: M14 melanoma
NCI/ADR-RES ovarian = tested on: NCI/ADR-RES ovarian
NCI-H522 lung = tested on: NCI-H522 lung
NCI-H226 lung = tested on: NCI-H226 lung
MOLT-4 leukemia = tested on: MOLT-4 leukemia
OVCAR-5 ovarian = tested on: OVCAR-5 ovarian
SK-MEL-2 melanoma = tested on: SK-MEL-2 melanoma
A498 renal = tested on: A498 renal
HCC-2998 colon = tested on: HCC-2998 colon
XF 498 CNS = tested on: XF 498 CNS
SN12K1 renal = tested on: SN12K1 renal
MCF7 breast = tested on: MCF7 breast
RPMI-8226 leukemia = tested on: RPMI-8226 leukemia
SF-268 CNS = tested on: SF-268 CNS
P388 leukemia = tested on: P388 leukemia
P388/ADR leukemia = tested on: P388/ADR leukemia
KM12 colon = tested on: KM12 colon

Measured: TGI

CCOC(=O)NC(=O)c1cn(CCSCCOC(=O)NCCCCCCNC(=O)OCCSCCn2cc(C(=O)NC(=O)OCC)c(=O)[nH]c2=O)c(=O)[nH]c1=O
> 100 µM: TK-10 renal | CAKI-1 renal | ACHN renal | M14 melanoma

Cc1cc(N=Nc2ccc(N=Nc3c(O)c(S(=O)(=O)O)cc4cc(S(=O)(=O)O)ccc34)cc2C)ccc1N=Nc1ccc2cc(S(=O)(=O)O)cc(S(=O)(=O)O)c2c1
> 73.1 µM: P388 leukemia
not listed: TK-10 renal | CAKI-1 renal | ACHN renal | M14 melanoma
> 100 µM: all other assays above
